“Also recorded” adds a separate entry of the source.
Key:
[1] = system: BRAFV600E human melanoma A375 cells; assay: A375 human melanoma xenograft in 8HUM_Rag2-/- mice, tumour volume under daily oral treatment; format: in vivo; conditions: adult female 8HUM_Rag2-/- mice
Method: Adult female 8HUM mice (11-19w, n=3) were injected s.c. in both flanks with 4.4×10^6 A375 melanoma cells, in 100 μl DMEM. Tumours were allowed to establish and on day 28 after implantation daily treatment was commenced with either vehicle (0.5% (w/v) hydroxypropylmethylcellulose, 0.2% (v/v) Tween-80; closed circles) or dabrafenib (in vehicle, open circles) suspended at 6.3 mg/ml and administered at 5 ml/kg, such that dabrafenib dose administered was 31.5 mg/kg (arrow). Tumour measurements were taken three times weekly, then daily as required, and total volume of tumours on both flanks was calculated as detailed in Methods section.
Adult female (>8<22 weeks) mice were randomly allocated into control or experimental groups and allowed to adapt to their social setting for 7d before study start. Cages were adjacent to each other on the same level of a ventilated rack, in the same room, for the study duration.
Data analysis: Dependencies of calculated tumour volumes versus time were analysed by non-linear regression using exponential growth and exponential decay functions (Prism 5 software, Graphpad, US). Rate constants in both functions were constrained to positive values to maintain consistency with the function name. Values for plateau parameters in exponential decay function were set to zero.

[2] = system: 5555 murine melanoma cells; assay: Syngeneic graft of 5555 murine melanoma cells in 8HUM mice, tumour volume under daily oral treatment; format: in vivo, mouse; conditions: adult female 8HUM mice, n=5, 31.5 mg/kg daily p.o. from day 5 after implantation, study ended day 15, versus vehicle
Method: FIG. 1: A. Xenograft of BRAFV600E human melanoma A375 cells in Rag2^null/8HUM mice (top). Bottom-no growth of A375 cells in immunocompetent 8HUM mice. B. Growth of a murine melanoma syngeneic graft in 8HUM mice and response to dabrafenib treatment. Adult female 8HUM_Rag2−/− mice (18-21w, n=5) were injected subcutaneously (s.c.) in one flank with 3.5×10^6 5555 murine melanoma cells, in 100 μl ECM diluted 1:1 with DMEM. […] Tumour measurements were taken three times weekly, then daily as required, and tumour volume calculated as detailed in Methods section. […]
Data analysis: Dependencies of calculated tumour volumes versus time were analysed by non-linear regression using exponential growth and exponential decay functions (Prism 5 software, Graphpad, US). […]
A375 human melanoma cells (ATCC: CRL-1619; RRID: CVCL_UD29) and 5555 murine melanoma cells (19-21) were grown as directed, with the latter subject to commercial murine pathogen testing (IDEXX Bioanalytics GmbH, Germany) and both to in-house mycoplasma testing (MycoAlert Mycoplasma Detection kit, Lonza Rockland, USA) before use. Passage number was recorded for each study. […]
Once established, tumours were measured twice in two dimensions (maximum breadth and length) using digital callipers, by the same person to avoid interindividual variation. […]

[3] = system: 5555 murine melanoma cell line; conditions: reported by Hirata et al.; cited from earlier work
[4] = system: 5555 murine melanoma cell line; conditions: reported by Hirata et al.; cited from earlier work; remark: listed apart in the source

SMILES | fit of tumour volume versus time by non-linear regression (exponential growth or decay) ([1]; A375 xenograft, 31.5 mg/kg daily p.o. d28-d35, vehicle group followed exponential growth) | total mean tumour volume of A375 xenograft (both flanks) ([1]; n=3, 31.5 mg/kg daily p.o. from d28 to d35, versus vehicle) | tumour growth / mean tumour volume of 5555 (GM5555) murine melanoma syngeneic graft [2] | tumour growth / mean tumour volume of 5555 (GM5555) murine melanoma syngeneic graft ([2]; listed as Dabrafenib) | sensitivity of 5555 cell line in vitro [3] | sensitivity of 5555 cell line in vivo [4]
CC(C)(C)c1nc(-c2cccc(NS(=O)(=O)c3c(F)cccc3F)c2F)c(-c2ccnc(N)n2)s1 [dabrafenib] | follows exponential decay dependency | shrank in size | became almost undetectable; also recorded: exquisitely sensitive | successfully inhibited |  | 
CCCS(=O)(=O)Nc1ccc(F)c(C(=O)c2c[nH]c3ncc(Cl)cc23)c1F [PLX4720] |  |  |  |  | sensitive | refractory
